Measurements from patent US8853424B2 (Japan Science and Technology Agency, priority 2008, dated 2014).

How the values were obtained:
[1] = test system: Truncated N-terminal huntington 150 Q-EGFP-Neuron 2a cells; experiment: Measurement of x-Fold (polyglutamine aggregation inhibitory activity); format: cell-based
Protocol: In the present invention, the polyglutamine aggregation inhibitory activity (x-Fold) can be measured, for example, by the method described in the Example.
The number of the aggregated cells, and the total number of cells were counted by Array Scan V T1 (manufactured by Cellomics, Pittuburg, USA), and the ratio of the aggregated cells to the total number of cells was determined (x-Fold). […]

[2] = test system: transglutaminase (TGase); experiment: Measurement of TG (TGase inhibitory activity, monodansyl cadaverine / N,N-dimethylcasein fluorescence, FDSS 3000); format: biochemical
How it was run: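 Compound (1 μL of 10 mM stock) added to 0.1 mL reaction: 100 mM HEPES-NaOH pH 7.5, 1 mM CaCl2, 20 μM monodansyl cadaverine, 0.05 mg/mL N,N-dimethylcasein, 5 μg/mL TGase. Rate of fluorescence change at 340 nm measured; DMSO control set to 100; TG50 is the concentration halving activity.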

[3] = polyglutamine aggregation, Truncated N-terminal huntington 150 Q-EGFP-Neuron 2a cells
[4] = ratio of aggregated cells to total number of cells, compound 20 μM, 20 hr, almost 1 without compound, smaller = stronger inhibition
[5] = TGase activity with compound (10 mM, 1 μL in 0.1 ml enzyme reaction solution), DMSO control taken as 100
[6] = TGase inhibitory activity measurement, unit not given
[7] = polyglutamine aggregation inhibitory activity, Table 1
[8] = TGase inhibitory activity value, Table 1

SMILES	x-Fold [1, 4]	TGase activity remaining (% of DMSO control = 100) [2, 5]	x-Fold [1, 7]	TGase activity remaining (% of DMSO control = 100) [2, 8]	also measured
CN(C)CCOB(c1ccc(COCc2ccc(B(OCCN(C)C)c3ccc(F)c(F)c3)cc2)cc1)c1ccc(F)c(F)c1 [Example 418, bis(4,4′-(3,4-difluorophenyl-N,N-dimethylaminoethoxyboryl)benzyl)ether]	1.02	45	–	–	x-Fold [1, 3]: 1.02; TGase activity remaining (% of DMSO control = 100) [2, 6]: 45
c1ccc(B(OCCN2CCCCC2)c2cccc(COCc3cccc(B(OCCN4CCCCC4)c4ccccc4)c3)c2)cc1 [Example 466, bis(3,3′-(phenyl-1-piperidylethoxyboryl)benzyl)ether]	1.04	71	–	–	x-Fold [1, 3]: 1.04; TGase activity remaining (% of DMSO control = 100) [2, 6]: 71
OB(c1ccccc1)c1ccc2sc3ccc(B(O)c4ccccc4)cc3c2c1 [Example 387, 2,8-di(phenylhydroxyboryl)dibenzothiophene]	0.73	96	0.73	96	–
OB(c1ccccc1)c1cccc(COCc2ccccc2B(O)c2ccccc2)c1 [Example 330, (2-(phenylhydroxyboryl)benzyl)(3-(phenylhydroxyboryl)benzyl)ether]	0.90	89	–	–	x-Fold ([1]; polyglutamine aggregation inhibitory activity, Table 1, listed as 655): 0.90; TGase activity remaining (% of DMSO control = 100) ([2]; TGase inhibitory activity value, Table 1, listed as 655): 89
Cc1ccc(B(OC(=O)c2ccccn2)c2ccc(C)c(Cl)c2)cc1Cl [Example 221, di(3-chloro-4-methylphenyl)(2-pyridine carboxylate-O,N)borane]	0.94	73	–	–	–
COc1ccc(C(OB(c2ccccc2)c2ccc(COCc3ccc(B(OC(c4ccc(OC)cc4)c4ccccn4)c4ccccc4)cc3)cc2)c2ccccn2)cc1 (stereo not drawn) [Example 126, bis(phenyl 2-pyridyl-4-methoxyphenylmethoxyborylbenzyl)ether]	1.04	81	–	–	–
CN(C)CCOB(c1ccccc1)c1ccc(COCc2ccc(B(OCCN(C)C)c3ccccc3)cc2)cc1 [Example 198, bis(4,4′-(phenyldimethylaminoethoxyboryl)benzyl)ether]	0.8	28	–	–	x-Fold ([1]; polyglutamine aggregation inhibitory activity, Table 1, listed as 3003): 0.8; TGase activity remaining (% of DMSO control = 100) ([2]; TGase inhibitory activity value, Table 1, listed as 3003): 28
OB(Cc1ccc(OCc2ccc(B(O)c3ccccc3)cc2)cc1)Cc1ccc(OCc2ccc(B(O)c3ccccc3)cc2)cc1 [Example 187, bis((4,4′-phenylhydroxyboryl)benzyloxybenzyl)hydroxyborane]	0.97	106	0.97	106	–
Fc1ccc(NCCOBc2cccc(COCc3cccc(BOCCNc4ccc(F)cc4)c3)c2)cc1 [Example 337, bis(3-(4-fluorophenylaminoethoxyboryl)benzyl)ether]	0.98	102	0.98	102	–
NCCCC(N)C(=O)OB(c1ccccc1)c1ccccc1 (stereo not drawn) [Example 179, diphenyl(2,5-diaminopentanate-O,N)borane]	0.99	127	–	–	x-Fold ([1]; polyglutamine aggregation inhibitory activity, Table 1, listed as 2044): 0.99; TGase activity remaining (% of DMSO control = 100) ([2]; TGase inhibitory activity value, Table 1, listed as 2044): 127
Cc1ccc(B(OC(=O)c2ccccc2N)c2ccc(C)c(Cl)c2)cc1Cl [Example 180, di(3-chloro-4-methylphenyl)(anthranate-O,N)borane]	0.98	35	0.98	35	–
CN(C)CCOB(c1ccc(COc2ccc(B(OCCN(C)C)c3ccc(C(F)(F)F)cc3)cc2)cc1)c1ccc(C(F)(F)F)cc1 [Example 401, (4′-trifluoromethylphenyl-N,N-dimethylaminoethoxyboryl)-4-phenyl (4′-trifluoromethylphenyl-N,N-dimethylaminoethoxyborylbenzyl)ether]	0.95	121	–	–	x-Fold [1, 3]: 0.95; TGase activity remaining (% of DMSO control = 100) [2, 6]: 121
Cc1cc(B(O)c2cccc(COCc3ccccc3B(O)c3ccc(Cl)c(C)c3)c2)ccc1Cl [Example 344, (3-(4-chloro-3-methylphenylhydroxyboryl)benzyl)(2-(4-chloro-3-methylphenylhydroxyboryl)benzyl)ether]	0.93	91	0.93	91	–
c1ccc(B(ON2CCCCC2)c2cccc(Oc3cccc(B(ON4CCCCC4)c4ccccc4)c3)c2)cc1 [Example 195, di(phenyl 3-piperidinooxyborylphenyl)ether]	0.77	115	0.77	115	–
NCC(=O)OB(c1ccccc1)c1ccc(Oc2ccc(B(OC(=O)CN)c3ccccc3)cc2)cc1 [Example 129, di((phenylglycine-O,N boryl)phenyl)ether]	0.78	101	–	–	–
NCCOB(c1ccc(Oc2ccc(B(OCCN)c3cccc4ccccc34)cc2)cc1)c1cccc2ccccc12 [Example 441, bis(4,4′-(naphthyl-aminoethoxyboryl)phenyl)ether]	0.58	−1	–	–	x-Fold [1, 3]: 0.58; TGase activity remaining (% of DMSO control = 100) [2, 6]: −1
Cc1ccc(B(OCC2CCCCN2C)c2ccc(C)c(Cl)c2)cc1Cl (stereo not drawn) [Example 163, di(3-chloro-4-methylphenyl)N-methylpiperidinomethylborinate]	1.00	109	–	–	–
Cc1ccc(B(OCCN2CCCCC2)c2ccc(Oc3ccc(B(OCCN4CCCCC4)c4ccc(C)cc4)cc3)cc2)cc1 [Example 447, bis(4,4′-(tolylpiperadylethoxyboryl)phenyl)ether]	0.49	97	–	–	x-Fold [1, 3]: 0.49; TGase activity remaining (% of DMSO control = 100) [2, 6]: 97
COc1ccc(B(O)c2cccc(COCc3cccc(B(O)c4ccc(OC)cc4)c3)c2)cc1 [Example 328, bis(3-(4-methoxyphenylhydroxyboryl)benzyl)ether]	1.04	100	–	–	–
c1ccc(B(OC2CCCNC2)c2ccc(Oc3ccc(B(OC4CCCNC4)c4ccccc4)cc3)cc2)cc1 (stereo not drawn) [Example 431, bis(4,4′-(phenyl-3-piperidyloxyboryl)phenyl)ether]	1.02	118	0.57	–	–
NCCOB(c1ccc(F)c(Cl)c1)c1ccc(F)c(Cl)c1 [Example 77, 2-aminoethyl-bis(3-chloro-4-fluorophenyl)borinate]	0.91	98	–	–	x-Fold ([1]; polyglutamine aggregation inhibitory activity, Table 1, listed as 6006): 0.91; TGase activity remaining (% of DMSO control = 100) ([2]; TGase inhibitory activity value, Table 1, listed as 6006): 98
NCCCC(N)C(=O)OB(c1ccccc1)c1ccccc1 (stereo not drawn) [Example 245, diphenyl(ornithine-O,N)borane]	0.91	94	–	–	x-Fold ([1]; polyglutamine aggregation inhibitory activity, Table 1, listed as 921): 0.91; TGase activity remaining (% of DMSO control = 100) ([2]; TGase inhibitory activity value, Table 1, listed as 921): 94
CN(C)CCOB(c1ccccc1)c1cccc2ccccc12 [Example 203, phenyl naphthyl dimethylaminoethylborinate]	0.97	97	0.97	97	–
NCCC(N)C(=O)OB(c1ccccc1)c1ccccc1 (stereo not drawn) [Example 280, diphenyl(2,4-diaminolacetic acid)borane]	0.88	98	–	–	x-Fold ([1]; polyglutamine aggregation inhibitory activity, Table 1, listed as 897): 0.88; TGase activity remaining (% of DMSO control = 100) ([2]; TGase inhibitory activity value, Table 1, listed as 897): 98
N#Cc1ccc(B(SCCN)c2ccc(C#N)cc2)cc1 [Example 106, 2-aminoethylthio bis(4-cyanophenyl)borane]	0.92	23	0.92	23	–
Cc1ccc(B(OC(=O)c2ccccn2)c2ccc(C)c(Cl)c2)cc1Cl [Example 281, di(3-chloro-4-methylphenyl)-(picolinate-O,N)borane]	0.94	77	–	–	–
NCCOB(c1cccc(COCc2cccc(B(OCCN)c3cccc4ccccc34)c2)c1)c1cccc2ccccc12 [Example 376, bis(3-(1-naphthylaminoethoxyboryl)benzyl)ether]	0.93	75	0.93	75	–
CC(C)(N)COB(c1ccc(Cl)c(F)c1)c1ccc(Cl)c(F)c1 [Example 236, di(4-chloro-3-fluorophenyl) 2-amino-2-methyl-propyl-borinate]	1.10	87	1.10	87	–
